The values below come from US11542259B2, “Compounds for the treatment of kinase-dependent disorders” (Exelixis, Inc., priority 2018, dated 2023).

Holding throughout (type): cell-based
In one assay the target is Met (Homo sapiens (Human), UniProt P08581). Put plainly: Met autophosphorylation ELISA in PC-3 cells. The settings on record: cellular, HGF stimulated, read-out: c-Met IC50. The protocol:
PC-3 prostate cancer cells (ATCC #CRL-1435) were seeded at 4×10^4 cells/well onto 24-well plates (Greiner #662165), in DMEM (Thermo Fisher #11995-040) containing 10% FBS (Thermo Fisher #26140-079), 1% MEM NEAA (Thermo Fisher #11140-050), 1% GlutaMax (Thermo Fisher #35050-061), and 1% Penicillin Streptomycin (Thermo Fisher #15140-122). PC-3 cells were incubated at 37° C., 5% CO2 for 24 h and then starved for 3 h in serum-free medium. Test compounds were serially diluted to produce an 8-point dose curve in fresh serum-free medium to a final concentration of 0.3% DMSO (vehicle) and added to the cells and incubated for 1 h. Cells were then stimulated with 100 ng/mL recombinant human HGF (R&D Systems #294-HG-250) for 10 min, washed with cold PBS and immediately lysed with 130 μL of cold 1× lysis buffer [20 mM Tris, 137 mM sodium chloride, 2 mM EDTA, 10% glycerol, 1% NP-40 alternative, 1 mM activated sodium orthovanadate, 1 mM PefaBloc SC (Sigma-Aldrich #11429868001), protease/phosphatase inhibitor tablet (Thermo Fisher #A32959)]. Lysates were clarified by centrifugation and 100 μL/well added into the PathScan phospho-Met (panTyr) Sandwich ELISA (Cell Signaling Technology #7333). Assay was performed according to manufacturer's instructions. Positive control wells (100% activity) contained HGF-stimulated, DMSO-treated cell lysates. Negative control wells (0% activity) contained HGF-stimulated, reference inhibitor-treated cell lysates. IC50 values were calculated by nonlinear regression analysis using a 4-parameter logistic curve fit in ActivityBase XE (IDBS).

Another assay has as its target KDR (Homo sapiens (Human), UniProt P35968). Put plainly: KDR autophosphorylation ELISA in HUVEC cells. To be noted: cellular, VEGF165 stimulated. The protocol:
Human umbilical vein endothelial cells or HUVEC (Lonza #C2519A) were seeded at 2×10^4 cells/well onto 96-well plates (Corning #3904), in EGM-2 growth medium (Lonza #CC-3162) containing 1% Penicillin Streptomycin (Thermo Fisher #15140-122). HUVEC cells were incubated at 37° C., 5% CO2 for 24 h and then starved for 24 h in serum-free EBM-2 basal medium (Lonza #CC-3156) containing 1% Penicillin Streptomycin. Test compounds were serially diluted to produce an 8-point dose curve in fresh serum-free medium to a final concentration of 0.3% DMSO (vehicle) and added to the cells and incubated for 1 h. Cells were then stimulated with 100 ng/mL recombinant human VEGF165 (R&D Systems #293-VE-500) for 5 min, washed with cold PBS, and immediately lysed with 130 μL of cold 1× lysis buffer [20 mM Tris, 137 mM sodium chloride, 2 mM EDTA, 10% glycerol, 1% NP-40 alternative, 1 mM activated sodium orthovanadate, 1 mM PefaBloc SC (Sigma-Aldrich #11429868001), protease/phosphatase inhibitor tablet (Thermo Fisher #A32959)]. Lysates were collected and 100 μL/well added into the human phospho-KDR DuoSet IC ELISA (R&D Systems #DYC1766-2). Assay was performed according to manufacturer's instructions and sample phospho-KDR concentrations were extrapolated using human phospho-KDR control (R&D Systems #841421) as a standard. Positive control wells (100% activity) contained VEGF165-stimulated, DMSO-treated cell lysates. Negative control wells (0% activity) contained non-stimulated cell lysates. IC50 values were calculated by nonlinear regression analysis using a 4-parameter logistic curve fit in ActivityBase XE (IDBS).
(An ELISA detects its analyte on a solid surface through an enzyme-linked reagent.)

The target of another assay is AXL (Homo sapiens (Human), UniProt P30530). The assay is described as follows: AXL autophosphorylation ELISA in A-172 cells. The settings on record: cellular, Gas6 stimulated. The procedure: A-172 glioblastoma cells (ATCC #CRL-1620) were seeded at 2.5×10^5 cells/well onto 24-well plates (Greiner #662165), in DMEM (Thermo Fisher #11995-040) containing 10% FBS (Thermo Fisher #26140-079), 1% MEM NEAA (Thermo Fisher #11140-050), 1% GlutaMax (Thermo Fisher #35050-061) and 1% Penicillin Streptomycin (Thermo Fisher #15140-122). A-172 cells were incubated at 37° C., 5% CO2 for 24 h and then starved for 24 h in serum-free medium. Test compounds were serially diluted to produce an 8-point dose curve in fresh serum-free medium to a final concentration of 0.3% DMSO (vehicle) and added to the cells and incubated for 1 h. Cells were then stimulated with 1 μg/mL recombinant human Gas6 (R&D Systems #885-GSB-500) for 15 min, washed with cold PBS and immediately lysed with 150 μL of cold 1× lysis buffer [20 mM Tris, 137 mM sodium chloride, 2 mM EDTA, 10% glycerol, 1% NP-40 alternative, 1 mM activated sodium orthovanadate, 1 mM PefaBloc SC (Sigma-Aldrich #11429868001), protease/phosphatase inhibitor tablet (Thermo Fisher #A32959)]. Lysates were collected and 100 μL/well added into the human phospho-AXL DuoSet IC ELISA (R&D Systems #DYC2228-2). Assay was performed according to manufacturer's instructions and sample phospho-AXL concentrations were extrapolated using human phospho-AXL control (R&D Systems #841645) as a standard. Positive control wells (100% activity) contained Gash-stimulated, DMSO-treated cell lysates. Negative control wells (0% activity) contained Gash-stimulated, reference inhibitor-treated cell lysates. IC50 values were calculated by nonlinear regression analysis using a 4-parameter logistic curve fit in ActivityBase XE (IDBS).
AXL, sequence (P30530 26-894): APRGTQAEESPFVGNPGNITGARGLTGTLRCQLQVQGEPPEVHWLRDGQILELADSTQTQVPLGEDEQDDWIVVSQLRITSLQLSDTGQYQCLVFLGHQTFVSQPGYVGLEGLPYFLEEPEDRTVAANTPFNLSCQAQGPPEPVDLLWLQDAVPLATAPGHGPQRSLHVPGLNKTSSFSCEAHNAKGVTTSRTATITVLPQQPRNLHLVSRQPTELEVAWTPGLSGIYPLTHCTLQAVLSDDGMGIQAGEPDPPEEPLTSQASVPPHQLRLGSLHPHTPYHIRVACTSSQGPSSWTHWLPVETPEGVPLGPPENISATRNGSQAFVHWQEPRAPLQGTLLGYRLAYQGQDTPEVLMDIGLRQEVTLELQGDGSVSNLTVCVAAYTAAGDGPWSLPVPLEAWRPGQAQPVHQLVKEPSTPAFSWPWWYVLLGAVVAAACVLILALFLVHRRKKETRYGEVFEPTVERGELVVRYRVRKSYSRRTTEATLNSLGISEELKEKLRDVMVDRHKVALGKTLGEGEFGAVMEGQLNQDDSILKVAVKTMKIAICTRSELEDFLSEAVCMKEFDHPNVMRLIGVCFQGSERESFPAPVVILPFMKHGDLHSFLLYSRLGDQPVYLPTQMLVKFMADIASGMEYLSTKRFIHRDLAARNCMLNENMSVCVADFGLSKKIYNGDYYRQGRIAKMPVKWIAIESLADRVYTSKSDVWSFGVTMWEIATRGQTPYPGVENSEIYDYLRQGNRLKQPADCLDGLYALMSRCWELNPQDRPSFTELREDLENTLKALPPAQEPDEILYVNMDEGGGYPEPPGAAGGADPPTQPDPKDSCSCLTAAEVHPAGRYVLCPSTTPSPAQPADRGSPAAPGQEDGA

KDR, sequence (P35968 20-1356): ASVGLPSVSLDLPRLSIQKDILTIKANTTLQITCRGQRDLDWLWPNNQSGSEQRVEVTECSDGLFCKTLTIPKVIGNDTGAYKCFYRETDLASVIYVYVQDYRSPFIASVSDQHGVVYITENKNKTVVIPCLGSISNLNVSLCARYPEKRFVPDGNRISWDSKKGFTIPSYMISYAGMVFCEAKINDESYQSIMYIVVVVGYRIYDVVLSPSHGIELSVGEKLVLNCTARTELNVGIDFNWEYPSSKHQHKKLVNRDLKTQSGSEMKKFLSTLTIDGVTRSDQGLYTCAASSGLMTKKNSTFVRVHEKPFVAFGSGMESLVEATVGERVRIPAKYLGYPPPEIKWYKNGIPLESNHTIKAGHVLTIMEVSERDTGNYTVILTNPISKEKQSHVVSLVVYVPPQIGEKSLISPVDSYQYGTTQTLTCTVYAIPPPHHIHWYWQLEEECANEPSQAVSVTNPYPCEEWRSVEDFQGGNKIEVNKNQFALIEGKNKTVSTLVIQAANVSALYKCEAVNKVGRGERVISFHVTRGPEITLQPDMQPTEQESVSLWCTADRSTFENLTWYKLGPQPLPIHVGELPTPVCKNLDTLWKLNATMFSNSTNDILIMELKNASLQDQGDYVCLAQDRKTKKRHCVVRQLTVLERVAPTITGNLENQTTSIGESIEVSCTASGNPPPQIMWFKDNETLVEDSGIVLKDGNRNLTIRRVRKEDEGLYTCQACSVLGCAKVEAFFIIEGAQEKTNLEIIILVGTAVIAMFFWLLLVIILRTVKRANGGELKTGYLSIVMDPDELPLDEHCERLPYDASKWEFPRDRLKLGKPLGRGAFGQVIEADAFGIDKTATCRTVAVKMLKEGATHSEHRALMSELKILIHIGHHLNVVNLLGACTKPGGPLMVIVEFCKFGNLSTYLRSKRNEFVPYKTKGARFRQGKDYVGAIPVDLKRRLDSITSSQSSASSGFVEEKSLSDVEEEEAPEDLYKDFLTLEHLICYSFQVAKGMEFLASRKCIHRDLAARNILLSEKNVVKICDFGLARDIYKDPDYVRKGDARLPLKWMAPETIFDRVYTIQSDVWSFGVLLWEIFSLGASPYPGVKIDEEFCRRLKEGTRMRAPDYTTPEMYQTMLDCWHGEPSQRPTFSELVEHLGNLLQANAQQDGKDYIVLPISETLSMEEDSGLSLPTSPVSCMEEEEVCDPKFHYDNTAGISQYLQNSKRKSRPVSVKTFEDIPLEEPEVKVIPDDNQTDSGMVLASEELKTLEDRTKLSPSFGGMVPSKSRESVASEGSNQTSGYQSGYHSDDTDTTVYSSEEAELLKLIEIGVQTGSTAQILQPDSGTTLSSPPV
Met, sequence (P08581 25-1390): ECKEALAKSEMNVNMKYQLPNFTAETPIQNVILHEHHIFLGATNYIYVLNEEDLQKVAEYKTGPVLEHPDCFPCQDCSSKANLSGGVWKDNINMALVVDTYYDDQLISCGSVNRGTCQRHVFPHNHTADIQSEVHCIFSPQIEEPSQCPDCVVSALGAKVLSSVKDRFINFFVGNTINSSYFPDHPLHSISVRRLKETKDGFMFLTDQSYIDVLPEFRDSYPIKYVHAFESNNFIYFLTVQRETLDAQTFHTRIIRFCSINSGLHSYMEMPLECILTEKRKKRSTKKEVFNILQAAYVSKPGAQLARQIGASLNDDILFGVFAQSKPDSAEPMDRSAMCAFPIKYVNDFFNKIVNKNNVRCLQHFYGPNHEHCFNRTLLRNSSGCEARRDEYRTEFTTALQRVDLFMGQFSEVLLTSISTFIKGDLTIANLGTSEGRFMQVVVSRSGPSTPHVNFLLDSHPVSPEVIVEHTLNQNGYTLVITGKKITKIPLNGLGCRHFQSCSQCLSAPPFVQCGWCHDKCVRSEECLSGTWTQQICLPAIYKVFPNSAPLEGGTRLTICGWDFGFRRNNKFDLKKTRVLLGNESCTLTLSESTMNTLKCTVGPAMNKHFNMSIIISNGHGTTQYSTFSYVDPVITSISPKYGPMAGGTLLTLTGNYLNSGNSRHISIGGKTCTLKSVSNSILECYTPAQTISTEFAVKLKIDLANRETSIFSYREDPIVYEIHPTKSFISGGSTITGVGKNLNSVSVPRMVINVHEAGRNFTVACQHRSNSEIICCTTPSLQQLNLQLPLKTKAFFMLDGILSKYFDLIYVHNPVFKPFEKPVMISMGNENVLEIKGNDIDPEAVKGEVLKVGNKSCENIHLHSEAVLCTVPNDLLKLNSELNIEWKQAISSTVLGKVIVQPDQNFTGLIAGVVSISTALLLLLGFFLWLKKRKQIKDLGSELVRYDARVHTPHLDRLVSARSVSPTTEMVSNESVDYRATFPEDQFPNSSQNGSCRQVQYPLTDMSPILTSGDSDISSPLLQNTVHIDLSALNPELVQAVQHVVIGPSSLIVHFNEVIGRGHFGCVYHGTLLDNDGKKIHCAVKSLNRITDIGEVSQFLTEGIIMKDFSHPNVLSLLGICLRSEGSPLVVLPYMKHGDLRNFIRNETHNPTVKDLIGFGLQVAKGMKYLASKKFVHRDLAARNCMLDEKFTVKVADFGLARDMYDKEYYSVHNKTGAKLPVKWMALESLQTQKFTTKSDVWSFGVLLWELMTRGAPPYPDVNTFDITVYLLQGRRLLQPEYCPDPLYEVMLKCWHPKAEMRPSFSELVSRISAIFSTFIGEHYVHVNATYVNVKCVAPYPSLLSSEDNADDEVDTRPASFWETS

As to `CNC(=O)c1cc2c(Oc3ccc(NC(=O)C4(C(=O)N(C)c5ccc(F)cc5)CC4)cc3)ccnc2cc1OC` [Compound 263, 1-N′-(4-Fluorophenyl)-1-N-[4-[7-methoxy-6-(methylcarbamoyl)quinolin-4-yl]oxyphenyl]-1-N′-methylcyclopropane-1,1-dicarboxamide], the IC50 at Met, against KDR and at AXL was over 0.3 µM each time.
`COC(=O)c1cc2c(Oc3ccc(NC(=O)C4(C(=O)Nc5ccc(F)cc5)CC4)cc3)ccnc2cc1N` [Compound 90, Methyl 7-amino-4-[4-[[1-[(4-fluorophenyl)carbamoyl]-cyclopropanecarbonyl]amino]phenoxy]quinoline-6-carboxylate]: the IC50 on Met, at KDR and against AXL was 0.01 to 0.1 µM in each case.
On to `O=C(NOC1COC1)c1ccc2c(Oc3ccc(NC(=O)C4(C(=O)Nc5ccc(F)cc5)CC4)cc3)ccnc2c1` [Compound 167, 1-N′-(4-Fluorophenyl)-1-N-[4-[7-(oxetan-3-yloxycarbamoyl)quinolin-4-yl]oxyphenyl]cyclopropane-1,1-dicarboxamide], for which the IC50 on Met, against KDR and on AXL was 0.1 to 0.3 µM each time.
Consider `O=C(NOCCO)c1ccc2c(Oc3ccc(NC(=O)C4(C(=O)Nc5ccc(F)cc5)CC4)cc3)ccnc2c1` [Compound 166, 1-N′-(4-Fluorophenyl)-1-N-[4-[7-(2-hydroxyethoxycarbamoyl)-quinolin-4-yl]oxyphenyl]cyclopropane-1,1-dicarboxamide], for which the IC50 on Met was in the range of 0.01 to 0.1 µM; on KDR, 0.1 to 0.3 µM; on AXL, 0.01 to 0.1 µM.
For `COC(=O)Nc1ccc2c(Oc3ccc(NC(=O)C4(C(=O)Nc5ccc(F)cc5)CC4)cc3)ccnc2c1` [Compound 282, Methyl N-[4-[4-[[1-[(4-fluorophenyl)carbamoyl]cyclopropanecarbonyl]-amino]phenoxy]quinolin-7-yl]carbamate], the values for the IC50 on Met, at KDR and against AXL were 0.1 to 0.3 µM, over 0.3 µM and 0.1 to 0.3 µM, respectively.
With `CNc1cc2nccc(Oc3ccc(NC(=O)C4(C(=O)Nc5ccc(F)cc5)CC4)cc3)c2cc1C(=O)OC` [Compound 84, Methyl 4-[4-[[1-[(4-fluorophenyl)carbamoyl]cyclopropane-carbonyl]amino]phenoxy]-7-(methylamino)quinoline-6-carboxylate], the IC50 was 0.01 to 0.1 µM at Met, at most 0.01 µM at KDR and at most 0.01 µM on AXL.
`O=C(Nc1ccc(F)cc1)C1(C(=O)Nc2ccc(Oc3ccnc4ccc(-c5nnco5)cc34)cc2)CC1` [Compound 221, 1-N′-(4-Fluorophenyl)-1-N-[4-[6-(1,3,4-oxadiazol-2-yl)quinolin-4-yl]oxyphenyl]cyclopropane-1,1-dicarboxamide]: the IC50 at Met was 0.1 to 0.3 µM; at KDR, 0.1 to 0.3 µM; at AXL, 0.01 to 0.1 µM.
Take `CNC(=O)c1cc2c(Oc3ccc(NC(=O)C4(C(=O)Nc5ccc(C(F)(F)F)cc5)CC4)cc3F)ccnc2cc1OC` [Compound 273, 1-N′-[3-Fluoro-4-[7-methoxy-6-(methylcarbamoyl)quinolin-4-yl]oxyphenyl]-1-N-[4-(trifluoromethyl)phenyl]cyclopropane-1,1-dicarboxamide]: the figures for the IC50 on Met, against KDR and against AXL were 0.1 to 0.3 µM, 0.01 to 0.1 µM and 0.1 to 0.3 µM, respectively.
Consider `NC(=O)c1cc2c(Oc3ccc(NC(=O)C4(C(=O)Nc5ccc(F)cc5)CC4)cc3)ccnc2cc1OCCO` [Compound 106, 1-N-[4-[6-Carbamoyl-7-(2-hydroxyethoxy)quinolin-4-yl]oxyphenyl]-1-N′-(4-fluorophenyl)cyclopropane-1,1-dicarboxamide], for which the half-maximal inhibitory concentration (IC50) is 0.01 to 0.1 µM at Met, at most 0.01 µM at KDR and at most 0.01 µM on AXL.
In the case of `CNC(=O)Nc1ccc2c(Oc3ccc(NC(=O)C4(C(=O)Nc5ccc(F)cc5)CC4)cc3)ccnc2c1` [Compound 281, 1-N′-(4-Fluorophenyl)-1-N-[4-[7-(methylcarbamoylamino)quinolin-4-yl]oxyphenyl]cyclopropane-1,1-dicarboxamide], the IC50 at Met lay within 0.01 to 0.1 µM; against KDR, 0.1 to 0.3 µM; at AXL, 0.1 to 0.3 µM.
For `O=C(Nc1ccc(F)cc1)C1(C(=O)Nc2ccc(Oc3ccnc4ccc(-c5ccn[nH]5)cc34)cc2)CC1` [Compound 204, 1-N′-(4-Fluorophenyl)-1-N-[4-[6-(1H-pyrazol-5-yl)quinolin-4-yl]oxyphenyl]cyclopropane-1,1-dicarboxamide], the 50% inhibitory concentration (IC50) on Met, against KDR and against AXL was 0.01 to 0.1 µM in each case.
For the compound `CNC(=O)c1cc2c(Oc3ccc(NC(=O)C4(C(=O)Nc5c(C)cc(F)cc5C)CC4)cc3F)ccnc2cc1OC` [Compound 267, 1-N′-(4-Fluoro-2,6-dimethylphenyl)-1-N-[3-fluoro-4-[7-methoxy-6-(methylcarbamoyl)quinolin-4-yl]oxyphenyl]cyclopropane-1,1-dicarboxamide], the IC50 on Met fell in the range of 0.1 to 0.3 µM; on KDR it was 0.1 to 0.3 µM; at AXL, 0.01 to 0.1 µM.
For `COc1cc2nccc(Oc3ccc(NC(=O)C4(C(=O)Nc5ccc(F)cc5)CC4)cc3)c2cc1-c1cn(C)cn1` [Compound 177, 1-N′-(4-Fluorophenyl)-1-N-[4-[7-methoxy-6-(1-methylimidazol-4-yl)quinolin-4-yl]oxyphenyl]cyclopropane-1,1-dicarboxamide], the half-maximal inhibitory concentration (IC50) on Met was 0.01 to 0.1 µM; against KDR, at most 0.01 µM; at AXL, at most 0.01 µM.
Regarding `CNC(=O)c1cc2c(Oc3ccc(NC(=O)C4(C(=O)Nc5ccc(F)cc5)CC4)cc3)ccnc2cc1N` [Compound 88, 1-N-[4-[7-Amino-6-(methylcarbamoyl)quinolin-4-yl]oxyphenyl]-1-N′-(4-fluorophenyl)cyclopropane-1,1-dicarboxamide], the figures for the IC50 on Met, against KDR and against AXL were 0.1 to 0.3 µM, over 0.3 µM and 0.1 to 0.3 µM, respectively.
As to `CNc1cc2nccc(Oc3ccc(NC(=O)C4(C(=O)Nc5ccc(F)cc5)CC4)cc3)c2cc1C(=O)O` [Compound 81, 4-[4-[[1-[(4-Fluorophenyl)carbamoyl]cyclopropane-carbonyl]amino]phenoxy]-7-(methylamino)quinoline-6-carboxylic Acid], the IC50 on Met, against KDR and against AXL was over 0.3 µM throughout.

As a reminder, the IC50 is the concentration that inhibits the measured activity by half.
